This is an account of results in paper PMC7114212 (Antiviral Research, 2006).

Read-outs that look alike come from different tables or passages of the source.

Data set [1] concerns FIPV strain 79-1146. Description: microbe, parasite or virus in culture. It is filed as cell-based, feline infectious peritonitis virus. The following applies: read-out: FIPV (CRFK) EC50.
The test system of data set [2] is HIV-1 (IIIB). The following applies: read-out: HIV-1 (CEM) EC50; cited from earlier work.
Data set [3] concerns CEM cells. The following applies: cited from earlier work; for IC50: read-out: HIV-1 (CEM) IC50 (50% cytostatic concentration).
Data set [4] concerns Crandell-Reese feline kidney (CRFK) cells.
For data set [5], the system named is Vero cells.
Data set [6] has as its system FIPV. Format: cell-based, feline infectious peritonitis virus.
The conditions of data set [7]: mouse, in vivo, cited from earlier work.

Broadly, the EC50 is the concentration that produces a half-maximal response. Regarding “Ristosaminylaglycon of ristomycin [compound 51]”, the half-maximal effective concentration (EC50) in data set [1] was more than 80 µM; in data set [2], more than 50 µM. In addition, the IC50 in data set [3] was more than 100 µM.

Regarding demannosyl-N-deacylA40926 [compound 57], the concentration for a half-maximal effect (EC50) in data set [1] is more than 80 µM. Besides, the “FIPV (CRFK) CC50” value in data set [4] is recorded as “neither toxic”. The “SARS-CoV (Vero) CC50” value in data set [5] is listed as “neither toxic”. Moreover, in data set [2], the 50% effective concentration (EC50) is 115 ± 21 µM. Moreover, in data set [3], the “HIV-1 (CEM) IC50 (50% cytostatic concentration)” value is “neither toxic” and the IC50 was more than 500 µM.

Consider Ristomycin [compound 50], for which, in data set [1], the EC50 is more than 80 µM. Moreover, the “FIPV (CRFK) CC50” value in data set [4] was “neither toxic”. In addition, the “SARS-CoV (Vero) CC50” value in data set [5] is reported as “neither toxic”. In addition, in data set [2], the concentration giving a half-maximal response (EC50) was more than 250 µM. For the same compound, in data set [3], the “HIV-1 (CEM) IC50 (50% cytostatic concentration)” value is “neither toxic” and the IC50 is more than 500 µM.

Usually CC50 stands for the concentration giving 50% cytotoxicity. Take Vancomycin aglycon [compound 65]: the 50% effective concentration (EC50) in data set [1] was more than 80 µM; in data set [2], 65 µM. Besides, the half-maximal cytotoxic concentration (CC50) in data set [4] and in data set [5] was more than 80 µM throughout. Moreover, in data set [3], the IC50 is more than 500 µM.

As to Teicoplanin [compound 52], in data set [1], the EC50 is more than 80 µM. Moreover, the “delay of addition after FIPV infection that keeps full antiviral activity” value in data set [6] is recorded as “markedly less delayed”. Further, the “FIPV (CRFK) CC50” value in data set [4] is listed as “neither toxic”. Further, the “SARS-CoV (Vero) CC50” value in data set [5] is “neither toxic”. Besides, in data set [3], the “HIV-1 (CEM) IC50 (50% cytostatic concentration)” value is “neither toxic” and the IC50 is more than 500 µM.

Regarding Carboxyeremomycin [compound 14], in data set [1], the concentration for a half-maximal effect (EC50) was more than 80 µM.

In general, Vss refers to the apparent volume that relates the amount in the body to the concentration in plasma or blood. The half-life is the time in which the quantity being followed falls by half. As for “adamantyl-2 amide of eremomycin [AN0900]”, in data set [7] (iv), the distribution volume (Vss) is 26285 mL/kg and the half-life was 185 min. In data set [7], the tissue penetration result was “deep tissue penetration”.

Take `CN[C@H](CC(C)C)C(=O)N[C@H]1C(=O)N[C@@H](CC(N)=O)C(=O)N[C@H]2C(=O)N[C@H]3C(=O)N[C@H](C(=O)N[C@H](C(=O)O)c4cc(O)cc(O)c4-c4cc3ccc4O)[C@H](O)c3ccc(c(Cl)c3)Oc3cc2cc(c3O[C@@H]2O[C@H](CO)[C@@H](O)[C@H](O)[C@H]2O[C@H]2C[C@](C)(N)[C@H](O)[C@H](C)O2)Oc2ccc(cc2Cl)[C@H]1O` [compound 1, Vancomycin]: the concentration giving a half-maximal response (EC50) is more than 80 µM in data set [1] (Alphacoronavirus 1, CRFK, 96 h); more than 100 µM in data set [1]; more than 250 µM in data set [2]. Also, the “FIPV (CRFK) CC50” value in data set [4] is “neither toxic”. In data set [5], the “SARS-CoV (Vero) CC50” value was “neither toxic”. Further, the “HIV-1 (CEM) IC50 (50% cytostatic concentration)” value in data set [3] is “neither toxic”. Further, the IC50 in data set [3] was more than 500 µM.

With De-Cl-eremomycin aglycon [compound 89], the EC50 in data set [1] was more than 100 µM; in data set [2] it was more than 125 µM. Besides, the CC50 in data set [4] and in data set [5] was more than 100 µM each time.

On to N-Deacyl-A40926 [compound 55], for which the EC50 in data set [1] was more than 80 µM. For the same compound, in data set [4], the “FIPV (CRFK) CC50” value was “neither toxic”. In addition, the “SARS-CoV (Vero) CC50” value in data set [5] is reported as “neither toxic”. The EC50 in data set [2] is more than 250 µM. In data set [3], the “HIV-1 (CEM) IC50 (50% cytostatic concentration)” value is “neither toxic” and the IC50 was more than 500 µM.

For the compound Eremomycin aglycon [compound 71], the EC50 in data set [1] was more than 80 µM; in data set [2] it was 50 µM. Further, the CC50 in data set [4] and in data set [5] was more than 80 µM each time. Further, the IC50 in data set [3] was more than 500 µM.

Consider “Vancomycin aglycon hexapeptide [compound 69]”, for which the concentration for a half-maximal effect (EC50) in data set [1] was more than 100 µM; in data set [2], not below 125 µM. The half-maximal cytotoxic concentration (CC50) in data set [4] and in data set [5] was more than 100 µM throughout.

Turning to Eremomycin [compound 7], in data set [1], the concentration giving a half-maximal response (EC50) is more than 100 µM. For the same compound, in data set [4], the “FIPV (CRFK) CC50” value was “neither toxic”. The “SARS-CoV (Vero) CC50” value in data set [5] is given as “neither toxic”. In addition, the EC50 in data set [2] is more than 250 µM. Besides, in data set [3], the “HIV-1 (CEM) IC50 (50% cytostatic concentration)” value is recorded as “neither toxic” and the IC50 was more than 500 µM.

Consider “Eremomycin aglycon hexapeptide [compound 84]”, for which the EC50 in data set [1] is more than 80 µM; in data set [2] it was 115 ± 21.2 µM. The CC50 in data set [4] and in data set [5] was more than 80 µM in each case. Also, the IC50 in data set [3] was more than 250 µM.
